The source of these data is ChEMBL document CHEMBL1765071, “Single photon emission computed tomography/positron emission tomography imaging and targeted radionuclide therapy of melanoma: new multimodal fluorinated and iodinated radiotracers” (J Med Chem, 2011).

Series [1] concerns Mus musculus. The series is described as follows: Biodistribution in mouse B16F0 cells bearing C57B16 mouse tumor at 1.26 to 5.29 MBq, iv after 24 hrs. Format: ADME, organism-based, Neoplasm. To be noted: in vivo.
Series [2] has as its system Mus musculus. The series is described as follows: Biodistribution in mouse B16F0 cells bearing C57B16 mouse tumor at 1.26 to 5.29 MBq, iv after 5 days. The class given is ADME, organism-based, Neoplasm. To be noted: in vivo, 120 h.
Series [3] relates to Mus musculus. The series is described as follows: Biodistribution in mouse B16F0 cells bearing C57B16 mouse tumor at 1.26 to 5.29 MBq, iv after 6 hrs. The class given is ADME, organism-based, Neoplasm. To be noted: in vivo.
In series [4] the test system is Mus musculus. The series is described as follows: Biodistribution in mouse B16F0 cells bearing C57B16 mouse tumor at 1.26 to 5.29 MBq, iv after 7 days. Format: ADME, organism-based, Neoplasm. To be noted: in vivo, 168 h.
Series [5] concerns Mus musculus. The series is described as follows: Biodistribution in mouse B16F0 cells bearing C57B16 mouse tumor at 1.26 to 5.29 MBq, iv after 1 hr. Format: ADME, organism-based, Neoplasm. To be noted: in vivo.
Series [6] concerns Mus musculus. The series is described as follows: Biodistribution in mouse B16F0 cells bearing C57B16 mouse tumor at 1.26 to 5.29 MBq, iv after 72 hrs. To be noted: in vivo. Format: ADME, organism-based, Neoplasm.
In series [7] the test system is Mus musculus. The series is described as follows: Biodistribution in mouse B16F0 cells bearing C57B16 mouse tumor at 1.26 to 5.29 MBq, iv after 3 hrs. The class given is ADME, organism-based, Neoplasm. To be noted: in vivo.
Series [8] relates to Mus musculus. The series is described as follows: Biodistribution in mouse B16F0 cells bearing C57B16 mouse tumor at 1.26 to 5.29 MBq, iv after 10 days. The class given is ADME, organism-based, Neoplasm. To be noted: in vivo, 240 h.
The test system of series [9] is Mus musculus. The series is described as follows: Biodistribution in mouse B16F0 cells bearing C57B16 mouse tumor at 1.26 to 5.29 MBq, iv after 14 days. The class given is ADME, organism-based, Neoplasm. To be noted: in vivo, 336 h.
Series [10] relates to Mus musculus. The series is described as follows: Biodistribution in mouse B16F0 cells bearing C57B16 mouse tumor assessed per volume of tissue at 7.4 MBq, iv after 2 hrs. Format: ADME, organism-based, Neoplasm. To be noted: in vivo.
Series [11] has as its system Mus musculus. The series is described as follows: Biodistribution in mouse B16F0 cells bearing C57B16 mouse tumor assessed per volume of tissue at 7.4 MBq, iv after 4 hrs. The class given is ADME, organism-based, Neoplasm. To be noted: in vivo.
In series [12] the test system is Mus musculus. The series is described as follows: Biodistribution in mouse B16F10 cells bearing C57B16 mouse tumor assessed per volume of tissue at 7.4 MBq, iv after 2 hrs. The class given is ADME, organism-based, Neoplasm, B16-F10. To be noted: in vivo.
Series [13] relates to Mus musculus. The series is described as follows: Biodistribution in mouse B16F10 cells bearing C57B16 mouse tumor assessed per volume of tissue at 7.4 MBq, iv after 4 hrs. To be noted: in vivo. Format: ADME, organism-based, Neoplasm, B16-F10.

SMILES strings stand for the structures.

As for `CCN(CCNC(=O)c1cnc2cc([125I])ccc2n1)c1cccc(F)n1`, the Drug uptake in series [1] is given as 0.9 % ID/g; in series [2], 0.3 % ID/g; in series [3], 1.8 % ID/g; in series [4], 0.2 % ID/g; in series [5], 2 % ID/g; in [6], 0.4 % ID/g. For the same molecule, the Drug uptake in [7] amounted to 2.2 % ID/g.

`CCN(CCNC(=O)c1ccc2cc([125I])ccc2c1)CCOc1cccnc1F.Cl`: the Drug uptake in series [1] is 5.9 % ID/g; in series [2], 2.8 % ID/g; in [3], 7.4 % ID/g; in series [4], 2.1 % ID/g; in series [5] it was 7.9 % ID/g; in series [8] it was 0.2 % ID/g. In addition, the results for the Drug uptake in series [7] and in [9] were 8 % ID/g and 0.6 % ID/g, respectively.

Turning to `CCN(CCNC(=O)c1cccc2c(=O)c3cc([125I])ccc3[nH]c12)CCOc1cccnc1F.Cl`, the Drug uptake in series [1] amounted to 16 % ID/g; in [2], 4.5 % ID/g; in series [3] it was 13 % ID/g; in [4], 4.3 % ID/g; in series [5], 10.7 % ID/g; in [8] it was 2.7 % ID/g. For the same molecule, the Drug uptake in [6] is 8.6 % ID/g; in series [7], 13 % ID/g; in series [9], 2 % ID/g.

`CCN(CCNC(=O)c1cnc2cc(I)ccc2n1)CCOc1cccnc1[18F]`: the Drug uptake is 8.3 %ID in series [10], 0.6 %ID in series [11], 2.1 %ID in [12] and 0.2 %ID in [13].

For the molecule `CCN(CC)CCNC(=O)c1cnc2cc([125I])ccc2n1.Cl.Cl`, the Drug uptake in series [1] is 28 % ID/g; in [2], 7.3 % ID/g; in series [3], 29.6 % ID/g; in series [4], 3.4 % ID/g; in [5] it was 21.8 % ID/g; in series [8], 1.9 % ID/g. The figures for the Drug uptake in [6] and in series [7] were 12.3 % ID/g and 26.3 % ID/g, respectively.

Turning to `CCN(CCNC(=O)c1cnc2cc([125I])ccc2n1)CCc1ccnc(F)c1.Cl.Cl`, the Drug uptake in [1] is 11.2 % ID/g; in series [2], 5.2 % ID/g; in [3], 14.5 % ID/g; in series [4], 3 % ID/g; in series [5] it was 12.1 % ID/g; in series [8] it was 1.6 % ID/g. In addition, the Drug uptake in series [6] was determined as 7.7 % ID/g; in series [7] it was 13.3 % ID/g; in series [9] it was 1.1 % ID/g.

On to `CCN(CCNC(=O)c1cccc2nc3cc([125I])ccc3nc12)CCOc1cccnc1F.Cl.Cl`, for which the Drug uptake in series [1] stood at 13.8 % ID/g; in [2] it was 3.7 % ID/g; in series [3], 13.8 % ID/g; in [4] it was 2 % ID/g; in series [5] it was 11.4 % ID/g; in series [8], 1.2 % ID/g. Besides, the Drug uptake in series [6] is 5.8 % ID/g; in [7], 12.3 % ID/g; in series [9], 0.7 % ID/g.

Consider `CCN(CCCc1ccnc(F)c1)CCNC(=O)c1cnc2cc([125I])ccc2n1.Cl.Cl`, for which the Drug uptake was determined as 16.3 % ID/g in series [1]; 5.1 % ID/g in series [2]; 14.1 % ID/g in series [3]; 2.5 % ID/g in [4]; 9.1 % ID/g in series [5]; 1.4 % ID/g in [8]. Also, the figures for the Drug uptake in [6], in series [7] and in series [9] were 9.5 % ID/g, 9.3 % ID/g and 0.7 % ID/g, respectively.

Consider `CCN(CCNC(=O)c1ccc2cncc([125I])c2n1)CCOc1cccnc1F.Cl.Cl`, for which the Drug uptake in [1] is recorded as 5.2 % ID/g; in [2], 1.6 % ID/g; in series [3], 5.3 % ID/g; in series [4] it was 1.1 % ID/g; in [5] it was 5.6 % ID/g; in series [8] it was 0.5 % ID/g. The Drug uptake in series [6] is listed as 3.3 % ID/g; in [7] it was 5.5 % ID/g; in series [9], 0.4 % ID/g.
